For 20 compounds, IC50 results are on record in patent US10040781B2, “Tank-binding kinase inhibitor compounds” (Gilead Sciences, Inc., priority 2014, dated 2018).

Assay [1] has as its target hJAK2 (Homo sapiens (Human), UniProt O60674). Nature of the assay: hJAK2 LANCE TR-FRET enzymatic assay. Format: biochemical. Particulars: read-out: JAK2 IC50. A general note: In TR-FRET formats the signal depends on donor and acceptor labels being close together.
For assay [2], the target named is TBK1 (Homo sapiens (Human), UniProt Q9UHD2). The assay is described as follows: TBK1 TR-FRET enzymatic assay.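 Further: phosphorylation of a biotinylated Ser/Thr peptide by purified full-length recombinant TBK1, read by TR-FRET after 240 min at 25 °C, IC50 is the geometric mean of at least four runs.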
TBK1, sequence (Q9UHD2 whole entry): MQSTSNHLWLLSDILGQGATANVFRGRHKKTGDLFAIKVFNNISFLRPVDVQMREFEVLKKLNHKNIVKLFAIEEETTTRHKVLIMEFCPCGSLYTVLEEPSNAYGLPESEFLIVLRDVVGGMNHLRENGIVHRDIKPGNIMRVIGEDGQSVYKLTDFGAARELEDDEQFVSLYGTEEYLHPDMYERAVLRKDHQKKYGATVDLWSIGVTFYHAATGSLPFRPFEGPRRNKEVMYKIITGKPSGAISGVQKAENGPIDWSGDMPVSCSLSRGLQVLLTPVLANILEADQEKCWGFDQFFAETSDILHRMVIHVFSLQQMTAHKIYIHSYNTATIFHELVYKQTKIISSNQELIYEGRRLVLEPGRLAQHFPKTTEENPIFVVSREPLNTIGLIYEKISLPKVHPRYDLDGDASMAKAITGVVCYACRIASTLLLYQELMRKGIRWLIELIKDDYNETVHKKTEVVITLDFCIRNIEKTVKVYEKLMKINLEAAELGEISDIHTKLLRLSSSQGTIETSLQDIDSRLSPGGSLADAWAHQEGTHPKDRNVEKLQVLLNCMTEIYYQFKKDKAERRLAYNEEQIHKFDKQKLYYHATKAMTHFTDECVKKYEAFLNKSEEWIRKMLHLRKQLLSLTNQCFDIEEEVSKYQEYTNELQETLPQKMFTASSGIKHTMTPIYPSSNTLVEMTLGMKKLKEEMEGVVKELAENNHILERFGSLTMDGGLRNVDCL
Assay [3] addresses IKKε (Homo sapiens (Human), UniProt Q14164). Nature of the assay: IKKε TR-FRET enzymatic assay. Format: biochemical. Particulars: read-out: IKKe IC50.

IKKε, sequence (Q14164 whole entry): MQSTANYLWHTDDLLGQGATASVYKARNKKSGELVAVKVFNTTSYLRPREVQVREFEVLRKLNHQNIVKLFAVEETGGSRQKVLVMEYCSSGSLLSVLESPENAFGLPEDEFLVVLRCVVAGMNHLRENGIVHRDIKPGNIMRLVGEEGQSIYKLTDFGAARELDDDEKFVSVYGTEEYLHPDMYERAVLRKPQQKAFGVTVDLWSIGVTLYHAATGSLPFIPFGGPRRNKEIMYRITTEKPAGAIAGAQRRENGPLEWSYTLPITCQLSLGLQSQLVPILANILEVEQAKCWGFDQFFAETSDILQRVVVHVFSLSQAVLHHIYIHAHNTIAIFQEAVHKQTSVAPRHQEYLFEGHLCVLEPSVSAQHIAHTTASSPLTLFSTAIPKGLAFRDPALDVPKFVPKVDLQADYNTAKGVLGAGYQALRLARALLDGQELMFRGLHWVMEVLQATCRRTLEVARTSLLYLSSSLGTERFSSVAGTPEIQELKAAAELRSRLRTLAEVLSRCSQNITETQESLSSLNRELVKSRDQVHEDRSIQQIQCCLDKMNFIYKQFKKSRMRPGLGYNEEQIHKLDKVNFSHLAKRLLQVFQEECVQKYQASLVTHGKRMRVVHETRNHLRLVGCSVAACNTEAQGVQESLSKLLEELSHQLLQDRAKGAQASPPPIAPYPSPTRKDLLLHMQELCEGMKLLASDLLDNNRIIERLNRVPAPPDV
hJAK2, sequence (O60674 whole entry): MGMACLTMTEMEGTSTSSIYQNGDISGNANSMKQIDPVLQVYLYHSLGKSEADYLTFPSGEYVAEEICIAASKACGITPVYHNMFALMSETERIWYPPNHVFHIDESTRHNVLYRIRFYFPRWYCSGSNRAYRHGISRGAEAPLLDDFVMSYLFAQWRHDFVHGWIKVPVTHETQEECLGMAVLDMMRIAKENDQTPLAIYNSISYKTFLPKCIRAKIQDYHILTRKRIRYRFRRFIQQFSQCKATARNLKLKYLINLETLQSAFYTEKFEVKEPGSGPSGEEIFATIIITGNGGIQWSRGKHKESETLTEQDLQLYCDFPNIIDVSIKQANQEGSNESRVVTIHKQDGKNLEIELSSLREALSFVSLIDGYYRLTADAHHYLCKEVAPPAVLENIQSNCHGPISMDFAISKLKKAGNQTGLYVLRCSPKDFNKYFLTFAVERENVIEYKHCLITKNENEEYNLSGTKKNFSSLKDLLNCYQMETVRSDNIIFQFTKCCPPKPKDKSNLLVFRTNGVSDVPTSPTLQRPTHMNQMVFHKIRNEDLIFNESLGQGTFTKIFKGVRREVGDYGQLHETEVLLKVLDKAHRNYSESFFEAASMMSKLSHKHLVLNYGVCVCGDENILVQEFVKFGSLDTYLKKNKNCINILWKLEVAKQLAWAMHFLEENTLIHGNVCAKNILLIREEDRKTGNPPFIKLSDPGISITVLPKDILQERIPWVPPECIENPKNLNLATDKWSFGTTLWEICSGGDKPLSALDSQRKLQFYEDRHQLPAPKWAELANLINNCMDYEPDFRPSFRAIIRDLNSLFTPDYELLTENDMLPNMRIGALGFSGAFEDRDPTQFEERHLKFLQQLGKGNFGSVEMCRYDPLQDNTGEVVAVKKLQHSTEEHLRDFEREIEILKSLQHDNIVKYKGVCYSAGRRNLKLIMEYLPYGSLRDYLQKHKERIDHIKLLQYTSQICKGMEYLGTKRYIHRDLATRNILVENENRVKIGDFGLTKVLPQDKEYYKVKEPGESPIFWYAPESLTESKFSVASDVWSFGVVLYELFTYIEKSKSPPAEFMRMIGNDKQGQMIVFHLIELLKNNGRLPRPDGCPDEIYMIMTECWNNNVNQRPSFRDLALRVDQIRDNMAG

For orientation: IC50 means the concentration that gives 50% inhibition. Take `C[C@H](O)C(=O)N1CC[C@H](Oc2ccc(-c3ncnc(Nc4ccc(C(=O)N5CCN(C)CC5)cc4)n3)cc2C#N)[C@H](F)C1` [Example 120, 2-(((3R,4S)-3-fluoro-1-((S)-2-hydroxypropanoyl)piperidin-4-yl)oxy)-5-(4-((4-(4-methylpiperazine-1-carbonyl)phenyl)amino)-1,3,5-triazin-2-yl)benzonitrile]: the half-maximal inhibitory concentration (IC50) in assay [1] turned out to be 0.674 µM; in assay [2], 0.004 µM; in assay [3], 0.002 µM.
Take `N#Cc1cc(-c2ncnc(Nc3ccc(N4CCN(C5COC5)CC4)cc3)n2)ccc1NC1CCOCC1` [Example 121, 5-(4-((4-(4-(oxetan-3-yl)piperazin-1-yl)phenyl)amino)-1,3,5-triazin-2-yl)-2-((tetrahydro-2H-pyran-4-yl)amino)benzonitrile]: the 50% inhibitory concentration (IC50) in assay [1] worked out at 0.032 µM; in assay [2], 0.011 µM; in assay [3], 0.047 µM.
`COC1CCC(Oc2ccc(-c3ncnc(Nc4ccc(N5CCN(C6COC6)CC5)cc4)n3)cc2C#N)CC1` (stereo not drawn) [Example 122, 2-((4-methoxycyclohexyl)oxy)-5-(4-((4-(4-(oxetan-3-yl)piperazin-1-yl)phenyl)amino)-1,3,5-triazin-2-yl)benzonitrile]: the IC50 stood at 0.402 µM in assay [1], 0.015 µM in assay [2] and 0.015 µM in assay [3].
As to `C[C@@H](CO)C(=O)N1CC[C@H](Oc2ccc(-c3ncnc(Nc4ccc(N5CCN(C6COC6)CC5)cc4)n3)cc2C#N)[C@H](F)C1` [Example 123, 2-(((3R,4S)-3-fluoro-1-((S)-3-hydroxy-2-methylpropanoyl)piperidin-4-yl)oxy)-5-(4-((4-(4-(oxetan-3-yl)piperazin-1-yl)phenyl)amino)-1,3,5-triazin-2-yl)benzonitrile], the 50% inhibitory concentration (IC50) stood at 0.546 µM in assay [1], 0.031 µM in assay [2] and 0.132 µM in assay [3].
The corresponding values for `C[C@H](CO)C(=O)N1CC[C@H](Oc2ccc(-c3ncnc(Nc4ccc(N5CCN(C6COC6)CC5)cc4)n3)cc2C#N)[C@H](F)C1` [Example 124, 2-(((3R,4S)-3-fluoro-1-((R)-3-hydroxy-2-methylpropanoyl)piperidin-4-yl)oxy)-5-(4-((4-(4-(oxetan-3-yl)piperazin-1-yl)phenyl)amino)-1,3,5-triazin-2-yl)benzonitrile] are 0.676 µM, 0.015 µM and 0.054 µM.
Regarding `N#Cc1cc(-c2ncnc(Nc3ccc(N4CCN(C5COC5)CC4)cc3)n2)ccc1O[C@@H]1CCCN(C(=O)CO)C1` [Example 125, (R)-2-((1-(2-hydroxyacetyl)piperidin-3-yl)oxy)-5-(4-((4-(4-(oxetan-3-yl)piperazin-1-yl)phenyl)amino)-1,3,5-triazin-2-yl)benzonitrile], the IC50 in assay [1] was 0.952 µM; in assay [2], 0.031 µM; in assay [3], 0.086 µM.
In the case of `C[C@H](O)C(=O)N1CCC[C@@H](Oc2ccc(-c3ncnc(Nc4ccc(N5CCN(C6COC6)CC5)cc4)n3)cc2C#N)C1` [Example 126, 2-(((R)-1-((S)-2-hydroxypropanoyl)piperidin-3-yl)oxy)-5-(4-((4-(4-(oxetan-3-yl)piperazin-1-yl)phenyl)amino)-1,3,5-triazin-2-yl)benzonitrile], the IC50 is at least 1 µM in assay [1], 0.056 µM in assay [2] and 0.111 µM in assay [3].
For the compound `N#Cc1cc(-c2ncnc(Nc3ccc(N4CCN(C5COC5)CC4)cc3)n2)ccc1O[C@H]1CCCN(C(=O)CO)C1` [Example 127, (S)-2-((1-(2-hydroxyacetyl)piperidin-3-yl)oxy)-5-(4-((4-(4-(oxetan-3-yl)piperazin-1-yl)phenyl)amino)-1,3,5-triazin-2-yl)benzonitrile], the concentration for half-maximal inhibition (IC50) in assay [1] was 0.394 µM; in assay [2] it was 0.18 µM; in assay [3], 0.562 µM.
Consider `C[C@H](O)C(=O)N1CCC[C@H](Oc2ccc(-c3ncnc(Nc4ccc(N5CCN(C6COC6)CC5)cc4)n3)cc2C#N)C1` [Example 128, 2-(((S)-1-((S)-2-hydroxypropanoyl)piperidin-3-yl)oxy)-5-(4-((4-(4-(oxetan-3-yl)piperazin-1-yl)phenyl)amino)-1,3,5-triazin-2-yl)benzonitrile], for which the IC50 was found to be 0.632 µM in assay [1], 0.037 µM in assay [2] and 0.177 µM in assay [3].
Take `N#Cc1cc(-c2ncnc(Nc3ccc(N4CCN(C5COC5)CC4)cc3)n2)ccc1O[C@H]1CCN(C(=O)[C@H]2CCCCN2)C[C@H]1F` [Example 129, 2-(((3R,4S)-3-fluoro-1-((R)-piperidine-2-carbonyl)piperidin-4-yl)oxy)-5-(4-((4-(4-(oxetan-3-yl)piperazin-1-yl)phenyl)amino)-1,3,5-triazin-2-yl)benzonitrile]: the values for the half-inhibitory concentration (IC50) in assay [1], in assay [2] and in assay [3] were at least 1 µM, 0.334 µM and 0.619 µM, respectively.
For `N#Cc1cc(-c2ncnc(Nc3ccc(N4CCN(C5COC5)CC4)cc3)n2)ccc1O[C@H]1CCN(C(=O)[C@H]2CCCN2)C[C@H]1F` [Example 130, 2-(((3R,4S)-3-fluoro-1-((R)-pyrrolidine-2-carbonyl)piperidin-4-yl)oxy)-5-(4-((4-(4-(oxetan-3-yl)piperazin-1-yl)phenyl)amino)-1,3,5-triazin-2-yl)benzonitrile], in that order: at least 1 µM, 0.029 µM and 0.073 µM.
For `N#Cc1cc(-c2ncnc(Nc3ccc(N4CCN(C5COC5)CC4)cc3)n2)ccc1O[C@H]1CCN(C(=O)[C@@H]2CCCCN2)C[C@H]1F` [Example 131, 2-(((3R,4S)-3-fluoro-1-((S)-piperidine-2-carbonyl)piperidin-4-yl)oxy)-5-(4-((4-(4-(oxetan-3-yl)piperazin-1-yl)phenyl)amino)-1,3,5-triazin-2-yl)benzonitrile], in that order: at least 1 µM, 0.101 µM and 0.175 µM.
`N#Cc1cc(-c2ncnc(Nc3ccc(N4CCN(C5COC5)CC4)cc3)n2)ccc1O[C@H]1CCN(C(=O)[C@H]2CC(F)(F)CN2)C[C@H]1F` [Example 132, 2-(((3R,4S)-1-((R)-4,4-difluoropyrrolidine-2-carbonyl)-3-fluoropiperidin-4-yl)oxy)-5-(4-((4-(4-(oxetan-3-yl)piperazin-1-yl)phenyl)amino)-1,3,5-triazin-2-yl)benzonitrile]: the concentration for half-maximal inhibition (IC50) in assay [1] was at least 1 µM; in assay [2], 0.025 µM; in assay [3] it was 0.051 µM.
As to `C[C@H](O)C(=O)N1CCC(Oc2cc(C#N)cc(-c3ncnc(Nc4ccc(N5CCN(C6COC6)CC5)cc4)n3)c2)CC1` [Example 134, (S)-3-((1-(2-hydroxypropanoyl)piperidin-4-yl)oxy)-5-(4-((4-(4-(oxetan-3-yl)piperazin-1-yl)phenyl)amino)-1,3,5-triazin-2-yl)benzonitrile], the figures for the half-inhibitory concentration (IC50) in assay [1], in assay [2] and in assay [3] were 0.371 µM, 0.52 µM and at least 1 µM, respectively.
`N#Cc1cc(-c2ncnc(Nc3ccc(N4CCN(C5COC5)CC4)cc3)n2)ccc1O[C@H]1CCN(C(=O)c2cn[nH]c2Cl)C[C@H]1F` [Example 136, 2-(((3R,4S)-1-(5-chloro-1H-pyrazole-4-carbonyl)-3-fluoropiperidin-4-yl)oxy)-5-(4-((4-(4-(oxetan-3-yl)piperazin-1-yl)phenyl)amino)-1,3,5-triazin-2-yl)benzonitrile]: the IC50 was determined as 0.167 µM in assay [1], 0.046 µM in assay [2] and 0.073 µM in assay [3].
With `N#Cc1cc(-c2ncnc(Nc3ccc(N4CCN(C5COC5)CC4)cc3)n2)ccc1O[C@H]1CCN(C(=O)c2cc[nH]c(=O)c2)C[C@H]1F` [Example 137, 2-(((3R,4S)-3-fluoro-1-(2-oxo-1,2-dihydropyridine-4-carbonyl)piperidin-4-yl)oxy)-5-(4-((4-(4-(oxetan-3-yl)piperazin-1-yl)phenyl)amino)-1,3,5-triazin-2-yl)benzonitrile], the results for the concentration for half-maximal inhibition (IC50) in assay [1], in assay [2] and in assay [3] were 0.207 µM, 0.019 µM and 0.032 µM, respectively.
In the case of `N#CCC(=O)N1CC[C@H](Oc2ccc(-c3ncnc(Nc4ccc(N5CCN(C6COC6)CC5)cc4)n3)cc2C#N)[C@H](F)C1` [Example 138, 2-(((3R,4S)-1-(2-cyanoacetyl)-3-fluoropiperidin-4-yl)oxy)-5-(4-((4-(4-(oxetan-3-yl)piperazin-1-yl)phenyl)amino)-1,3,5-triazin-2-yl)benzonitrile], the IC50 in assay [1] came to 0.146 µM; in assay [2] it was 0.002 µM; in assay [3], 0.002 µM.
`N#Cc1cc(-c2ncnc(Nc3ccc(N4CCN(C5COC5)CC4)cc3)n2)ccc1O[C@H]1CCN(C(=O)CCO)C[C@H]1F` [Example 139, 2-(((3R,4S)-3-fluoro-1-(3-hydroxypropanoyl)piperidin-4-yl)oxy)-5-(4-((4-(4-(oxetan-3-yl)piperazin-1-yl)phenyl)amino)-1,3,5-triazin-2-yl)benzonitrile]: the IC50 in assay [1] turned out to be 0.408 µM; in assay [2] it was 0.004 µM; in assay [3] it was 0.007 µM.
As for `N#Cc1cc(-c2ncnc(Nc3ccc(N4CCN(C5COC5)CC4)cc3)n2)ccc1O[C@H]1CCN(C(=O)C2(O)CC2)C[C@H]1F` [Example 140, 2-(((3R,4S)-3-fluoro-1-(1-hydroxycyclopropanecarbonyl)piperidin-4-yl)oxy)-5-(4-((4-(4-(oxetan-3-yl)piperazin-1-yl)phenyl)amino)-1,3,5-triazin-2-yl)benzonitrile], the values for the IC50 in assay [1], in assay [2] and in assay [3] were 0.341 µM, 0.006 µM and 0.01 µM, respectively.
Consider `N#Cc1cc(-c2ncnc(Nc3ccc(N4CCN(C5COC5)CC4)cc3)n2)ccc1O[C@H]1CCN(C(=O)c2ccc[nH]2)C[C@H]1F` [Example 141, 2-(((3R,4S)-3-fluoro-1-(1H-pyrrole-2-carbonyl)piperidin-4-yl)oxy)-5-(4-((4-(4-(oxetan-3-yl)piperazin-1-yl)phenyl)amino)-1,3,5-triazin-2-yl)benzonitrile], for which the figures for the IC50 in assay [1], in assay [2] and in assay [3] were 0.356 µM, 0.003 µM and 0.002 µM, respectively.
